The record followed here is patent US6759546B1, “3,5-di-iso-propyl-heptatrienoic acid derivatives having serum glucose reducing activity” (Allergan, Inc., priority 2003, dated 2004).

Test [1] has as its target T1, RXRβ (UniProt P28704).
T1 sequence (P28704 1-520): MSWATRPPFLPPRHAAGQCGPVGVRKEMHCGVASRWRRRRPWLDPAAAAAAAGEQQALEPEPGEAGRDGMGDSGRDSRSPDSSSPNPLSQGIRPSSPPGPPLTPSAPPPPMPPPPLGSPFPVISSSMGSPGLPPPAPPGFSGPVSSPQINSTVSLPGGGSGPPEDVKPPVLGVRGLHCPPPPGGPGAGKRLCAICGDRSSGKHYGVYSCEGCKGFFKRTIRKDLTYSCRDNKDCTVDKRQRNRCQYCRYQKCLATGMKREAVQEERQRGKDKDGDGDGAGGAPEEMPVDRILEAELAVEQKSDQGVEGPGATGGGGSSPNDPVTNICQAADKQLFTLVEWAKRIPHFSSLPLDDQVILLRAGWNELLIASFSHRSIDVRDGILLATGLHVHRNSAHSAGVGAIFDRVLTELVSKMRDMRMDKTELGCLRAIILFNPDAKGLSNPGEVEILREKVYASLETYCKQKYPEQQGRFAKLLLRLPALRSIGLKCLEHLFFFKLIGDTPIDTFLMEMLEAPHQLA
As to the kind of experiment: holoreceptor transactivation assay. The conditions noted are these: percentage compared to the standard compound.
Excerpt: (§1) The results obtained in this assay are expressed in EC50 numbers, as they are also in the chimeric receptor transactivation assay.
(§2) Particularly, the transactivation data pertaining to activation of the RAR receptors were obtained in the chimeric assay, and the transactivation data pertaining to the activation of RXR receptors were obtained in the holoreceptor assay.

The target of test [2] is T2, RARα (Homo sapiens, UniProt P10276).
T2 sequence (P10276 1-462): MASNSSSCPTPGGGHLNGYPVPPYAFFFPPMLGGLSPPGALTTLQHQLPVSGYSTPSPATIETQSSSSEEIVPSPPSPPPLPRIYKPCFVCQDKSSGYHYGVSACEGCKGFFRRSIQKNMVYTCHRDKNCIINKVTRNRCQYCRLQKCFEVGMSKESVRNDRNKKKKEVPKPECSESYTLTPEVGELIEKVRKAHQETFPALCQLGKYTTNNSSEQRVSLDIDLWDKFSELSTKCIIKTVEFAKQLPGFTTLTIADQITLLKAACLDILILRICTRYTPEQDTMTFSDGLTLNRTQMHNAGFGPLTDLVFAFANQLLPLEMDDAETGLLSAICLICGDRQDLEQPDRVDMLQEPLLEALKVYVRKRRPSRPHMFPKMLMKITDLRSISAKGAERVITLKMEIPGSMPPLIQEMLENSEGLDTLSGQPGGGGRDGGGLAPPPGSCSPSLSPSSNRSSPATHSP
As to the kind of experiment: ligand binding assay. The conditions noted are these: read-out: RAR Bind. Ki α.
Excerpt: (§3) The results of the ligand binding assay are expressed in Ki numbers.

Test [3] addresses T3, RARγ (Homo sapiens, UniProt P13631).
T3 sequence (P13631 1-454): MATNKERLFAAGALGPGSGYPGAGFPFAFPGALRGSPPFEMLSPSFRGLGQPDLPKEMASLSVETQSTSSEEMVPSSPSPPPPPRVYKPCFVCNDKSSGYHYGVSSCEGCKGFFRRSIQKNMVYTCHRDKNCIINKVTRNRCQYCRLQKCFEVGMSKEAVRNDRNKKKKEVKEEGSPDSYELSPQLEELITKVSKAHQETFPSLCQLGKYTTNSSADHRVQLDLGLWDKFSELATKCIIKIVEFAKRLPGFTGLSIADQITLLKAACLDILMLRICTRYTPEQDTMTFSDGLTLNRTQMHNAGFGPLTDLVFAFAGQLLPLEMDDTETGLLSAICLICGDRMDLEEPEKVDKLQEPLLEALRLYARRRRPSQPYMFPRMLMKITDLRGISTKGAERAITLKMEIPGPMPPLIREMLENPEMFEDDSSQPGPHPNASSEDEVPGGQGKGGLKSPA
As to the kind of experiment: ligand binding assay. The conditions noted are these: read-out: RAR Bind. Ki γ.
Excerpt: as §3

The target in test [4] is T4, RXRβ (Homo sapiens, UniProt P28702).
T4 sequence (P28702 1-533): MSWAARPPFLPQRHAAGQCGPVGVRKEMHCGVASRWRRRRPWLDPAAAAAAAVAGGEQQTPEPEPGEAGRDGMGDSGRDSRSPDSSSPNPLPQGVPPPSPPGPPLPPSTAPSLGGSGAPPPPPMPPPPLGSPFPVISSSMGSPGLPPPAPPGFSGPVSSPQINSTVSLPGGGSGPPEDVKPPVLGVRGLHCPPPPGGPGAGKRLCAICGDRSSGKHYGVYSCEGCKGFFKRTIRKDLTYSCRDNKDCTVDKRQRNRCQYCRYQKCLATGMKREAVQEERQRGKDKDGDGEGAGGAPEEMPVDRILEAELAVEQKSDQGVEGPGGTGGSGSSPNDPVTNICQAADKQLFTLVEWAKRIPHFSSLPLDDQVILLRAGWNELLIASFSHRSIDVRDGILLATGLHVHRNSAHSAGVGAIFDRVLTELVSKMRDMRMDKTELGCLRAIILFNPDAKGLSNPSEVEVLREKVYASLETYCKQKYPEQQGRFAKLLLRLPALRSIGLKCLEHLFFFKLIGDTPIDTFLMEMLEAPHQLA
As to the kind of experiment: ligand binding assay. The conditions noted are these: read-out: RXR Bind. Ki β.
Excerpt: as §3

In test [5] the target is T5, RXRα (Homo sapiens, UniProt P19793).
T5 construct: expressed in transfected cells
T5 sequence (P19793 1-462): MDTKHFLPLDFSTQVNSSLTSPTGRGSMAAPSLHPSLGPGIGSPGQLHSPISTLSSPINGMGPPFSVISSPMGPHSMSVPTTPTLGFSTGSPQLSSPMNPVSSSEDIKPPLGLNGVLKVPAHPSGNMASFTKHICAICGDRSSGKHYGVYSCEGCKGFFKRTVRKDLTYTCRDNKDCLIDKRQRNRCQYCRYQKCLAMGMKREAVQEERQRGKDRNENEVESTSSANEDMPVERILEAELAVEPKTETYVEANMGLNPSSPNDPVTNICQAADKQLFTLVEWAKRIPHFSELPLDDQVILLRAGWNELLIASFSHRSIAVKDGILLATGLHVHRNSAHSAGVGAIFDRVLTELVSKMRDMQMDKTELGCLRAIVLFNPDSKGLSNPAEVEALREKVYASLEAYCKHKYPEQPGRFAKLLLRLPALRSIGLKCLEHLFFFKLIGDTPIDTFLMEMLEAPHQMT
The test is described as follows: ligand binding assay. The conditions noted are these: read-out: RXR Bind. Ki α.
Excerpt: as §3

Test [6] concerns the target T5, RXRα. As to the kind of experiment: holoreceptor transactivation assay. It counts as cell-based. The following applies: for EC50: holoreceptor assay, read-out: RXR Trans. EC50 α; for RXR Trans. efficacy α: percentage compared to the standard compound.
Excerpt: as §1, §2

For orientation: Ki means the equilibrium dissociation constant of an inhibitor or competing ligand from its target. Broadly, the EC50 is the midpoint of the concentration-response curve.

Take `CCCOc1c(\C(=C/C=C/C(C)=C/C(=O)O)CC)cc(C(C)C)cc1C(C)C` [Compound 8, 7-(3,5-Diisopropyl-2-propoxy-phenyl)-3-methyl-nona-2,4,6-trienoic acid]: the “RXR Trans. efficacy β” value in test [1] is recorded as 29%. The Ki in test [2] worked out at 170 nM; in test [3], 310 nM; in test [4], 12 nM; in test [5], 1 nM. Also, the EC50 in test [6] came out at 1 nM. Further, the “RXR Trans. efficacy α” value in test [6] worked out at 33%.
For the compound `CCCOc1c(\C(C)=C/C=C/C(C)=C/C(=O)O)cc(C(C)C)cc1C(C)C` [Compound 16, 7-(3,5-Diisopropyl-2-propoxy-phenyl)-3-methyl-octa-2,4,6-trienoic acid], in test [1], the “RXR Trans. efficacy β” value is given as 33%. Also, the inhibition constant (Ki) in test [2] amounted to 310 nM; in test [3], 550 nM; in test [4] it was 12 nM; in test [5], 1 nM. The EC50 in test [6] came to 0.4 nM. The “RXR Trans. efficacy α” value in test [6] is recorded as 34%.
